Experimental findings from patent US12559529B2, “NPY2 receptor agonists” (Boehringer Ingelheim International GmbH, priority 2019, dated 2026) are described below.

*1 amine or outer side, *2 acyl side, *3 side chain or, on linkers, in order; H or OH if unused. Where a SMILES comes first, the peptide text is derived from it. Side-chain parts run from the residue outwards. The star is where a group is joined. C18 diacid = O=C(O)CCCCCCCCCCCCCCCCC(=O)*; γGlu = O=C(O)[C@H](CCC(=O)[*:2])N[*:1]; Isovaleryl = CC(C)CC(=O)*; AEEA = NCCOCCOCC(=O)O

This assay addresses T1, Human Neuropeptide Y2 Receptor (Homo sapiens, UniProt P49146).
T1 construct: purchased CHEMICON HTS066M
T1 sequence (P49146 1-381): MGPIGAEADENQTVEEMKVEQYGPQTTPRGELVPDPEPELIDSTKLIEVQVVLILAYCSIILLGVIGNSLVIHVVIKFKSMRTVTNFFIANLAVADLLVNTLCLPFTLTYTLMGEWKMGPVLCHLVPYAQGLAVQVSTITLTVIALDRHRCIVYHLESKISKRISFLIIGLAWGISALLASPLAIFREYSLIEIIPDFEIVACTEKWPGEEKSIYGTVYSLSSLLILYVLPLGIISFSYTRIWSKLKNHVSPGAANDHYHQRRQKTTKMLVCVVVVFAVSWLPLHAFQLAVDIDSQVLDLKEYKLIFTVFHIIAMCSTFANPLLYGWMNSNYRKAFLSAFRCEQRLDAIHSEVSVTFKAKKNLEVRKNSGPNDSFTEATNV
The assay can be described thus: Radioligand binding competition assay (RLB). The note with it: Table 3; human 125I-PYY (1-36) 0.02 nM, Y2 receptor membranes; read-out: Ki. Put shortly:
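Membranes from cells expressing human Y2 receptor (0.5 μg protein/well) were incubated with radioligand and serially diluted peptides in 50 mM HEPES, 5 mM MgCl2, 1 mM CaCl2, 0.2% ovalbumin, pH 7.4, for 2 h at room temperature with shaking. Bound radioactivity was collected by filtration and counted; IC50 from sigmoidal nonlinear regression.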
In the case of `CC(C)CC(=O)N[C@@H](C)C(=O)N1CCC[C@H]1C(=O)N[C@@H](CCC(=O)O)C(=O)N[C@@H](CCCCNC(=O)COCCOCCNC(=O)COCCOCCNC(=O)CC[C@H](NC(=O)CCCCCCCCCCCCCCCCC(=O)O)C(=O)O)C(=O)N1CCC[C@H]1C(=O)N[C@@H](CCC(=O)O)C(=O)N[C@@H](C)C(=O)N1CCC[C@H]1C(=O)N[C@@H](C)C(=O)N[C@@H](CO)C(=O)N1CCC[C@H]1C(=O)N[C@@H](CCC(=O)O)C(=O)N[C@@H](CCC(=O)O)C(=O)N[C@@H](CC(C)C)C(=O)N[C@@H](CCC(N)=O)C(=O)N[C@@H](CCCNC(=N)N)C(=O)N[C@@H](Cc1ccc(O)cc1)C(=O)N[C@@H](Cc1ccc(O)cc1)C(=O)N[C@H](C(=O)N[C@@H](CO)C(=O)N[C@@H](CC(C)C)C(=O)N[C@@H](CCCNC(=N)N)C(=O)N[C@@H](Cc1c[nH]cn1)C(=O)N[C@@H](Cc1ccc(O)cc1)C(=O)N[C@@H](Cc1ccc(O)cc1)C(=O)N[C@@H](CC(N)=O)C(=O)N[C@@H](Cc1c[nH]c2ccccc12)C(=O)N[C@@H](CC(C)C)C(=O)N[C@H](C(=O)N[C@@H](CCCNC(=N)N)C(=O)N[C@@H](CCC(N)=O)C(=O)N[C@@H](CCCNC(=N)N)C(=O)N[C@@H](Cc1ccc(O)cc1)C(N)=O)[C@@H](C)O)C(C)C` [Compound 43, N{alpha-4}-(3-methylbutanoyl)-N{epsilon-7}-[2-(2-{2-[2-(2-{2-[(4S)-4-carboxy-4-(17-carboxyheptadecanamido)butanamido]ethoxy}ethoxy)acetamido]ethoxy}ethoxy)acetamido]-[4A,7K,9E,10A,11P,18Q,22V,28Y,30W,31L]hPYY (4-36)] (Isovaleryl-APEK([AEEA-AEEA-γGlu-C18 diacid])PEAPASPEELQRYYVSLRHYYNWLTRQRY-NH2), the Ki (in general, a dissociation constant, usually derived from enzyme kinetics or from competition with a known ligand) was determined as 0.4 nM.

Regarding `CC(C)CC(=O)N[C@@H](C)C(=O)N1CCC[C@H]1C(=O)N[C@@H](CCC(=O)O)C(=O)N[C@@H](CCCCNC(=O)COCCOCCNC(=O)COCCOCCNC(=O)CC[C@H](NC(=O)CCCCCCCCCCCCCCCCC(=O)O)C(=O)O)C(=O)N1CCC[C@H]1C(=O)N1CCC[C@H]1C(=O)N[C@@H](CCC(=O)O)C(=O)N[C@@H](CCC(=O)O)C(=O)N[C@@H](C)C(=O)N[C@@H](CO)C(=O)N1CCC[C@H]1C(=O)N[C@@H](CCC(=O)O)C(=O)N[C@@H](CCC(=O)O)C(=O)N[C@@H](CC(C)C)C(=O)N[C@@H](CCC(N)=O)C(=O)N[C@@H](CCCNC(=N)N)C(=O)N[C@@H](Cc1ccc(O)cc1)C(=O)N[C@@H](Cc1ccc(O)cc1)C(=O)N[C@H](C(=O)N[C@@H](CO)C(=O)N[C@@H](CC(C)C)C(=O)N[C@@H](CCCNC(=N)N)C(=O)N[C@@H](Cc1c[nH]cn1)C(=O)N[C@@H](Cc1ccc(O)cc1)C(=O)N[C@@H](Cc1ccc(O)cc1)C(=O)N[C@@H](CC(N)=O)C(=O)N[C@@H](Cc1c[nH]c2ccccc12)C(=O)N[C@@H](CC(C)C)C(=O)N[C@H](C(=O)N[C@@H](CCCNC(=N)N)C(=O)N[C@@H](CCC(N)=O)C(=O)N[C@@H](CCCNC(=N)N)C(=O)N[C@@H](Cc1ccc(O)cc1)C(N)=O)[C@@H](C)O)C(C)C` [Compound 142, N{alpha-4}-(3-methylbutanoyl)-N{epsilon-7}-[2-(2-{2-[2-(2-{2-[(4S)-4-carboxy-4-(17-carboxyheptadecanamido)butanamido]ethoxy}ethoxy)acetamido]ethoxy}ethoxy)acetamido]-[4A,7K,9P,11E,18Q,22V,28Y,30W,31L]hPYY (4-36)], the Ki amounted to 1.17 nM. As for `CC(C)CC(=O)N[C@@H](C)C(=O)N1CCC[C@H]1C(=O)N[C@@H](CCC(=O)O)C(=O)N[C@@H](CCCCNC(=O)COCCOCCNC(=O)COCCOCCNC(=O)CC[C@H](NC(=O)CCCCCCCCCCCCCCCCC(=O)O)C(=O)O)C(=O)N1CCC[C@H]1C(=O)N[C@@H](CCC(=O)O)C(=O)N[C@@H](CCC(=O)O)C(=O)N[C@@H](C)C(=O)N[C@@H](C)C(=O)N[C@@H](CO)C(=O)N1CCC[C@H]1C(=O)N[C@@H](CCC(=O)O)C(=O)N[C@@H](CCC(=O)O)C(=O)N[C@@H](CC(C)C)C(=O)N[C@@H](CCC(N)=O)C(=O)N[C@@H](CCCNC(=N)N)C(=O)N[C@@H](Cc1ccc(O)cc1)C(=O)N[C@@H](Cc1ccc(O)cc1)C(=O)N[C@H](C(=O)N[C@@H](CCC(=O)O)C(=O)N[C@@H](CC(C)C)C(=O)N[C@@H](CCCNC(=N)N)C(=O)N[C@@H](Cc1c[nH]cn1)C(=O)N[C@@H](Cc1ccc(O)cc1)C(=O)N[C@@H](Cc1ccc(O)cc1)C(=O)N[C@@H](CC(N)=O)C(=O)N[C@@H](Cc1c[nH]c2ccccc12)C(=O)N[C@@H](CC(C)C)C(=O)N[C@H](C(=O)N[C@@H](CCCNC(=N)N)C(=O)N[C@@H](CCC(N)=O)C(=O)N[C@@H](CCCNC(=N)N)C(=O)N[C@@H](Cc1ccc(O)cc1)C(N)=O)[C@@H](C)O)C(C)C` [Compound 149, N{alpha-4}-(3-methylbutanoyl)-N{epsilon-7}-[2-(2-{2-[2-(2-{2-[(4S)-4-carboxy-4-(17-carboxyheptadecanamido)butanamido]ethoxy}ethoxy)acetamido]ethoxy}ethoxy)acetamido]-[4A,7K,9E,11A,18Q,22V,23E,28Y,30W,31L]hPYY (4-36)], the figure is 2.75 nM. Under `CC(C)CC(=O)N[C@@H](C)C(=O)N1CCC[C@H]1C(=O)N[C@@H](CCC(=O)O)C(=O)N[C@@H](CCCCNC(=O)COCCOCCNC(=O)COCCOCCNC(=O)CC[C@H](NC(=O)CCCCCCCCCCCCCCCCC(=O)O)C(=O)O)C(=O)N1CCC[C@H]1C(=O)N[C@@H](CCC(=O)O)C(=O)N[C@@H](CCC(=O)O)C(=O)N[C@@H](CC(=O)O)C(=O)N[C@H](C(=O)N[C@@H](CO)C(=O)N1CCC[C@H]1C(=O)N[C@@H](CCC(=O)O)C(=O)N[C@@H](CCC(=O)O)C(=O)N[C@@H](CC(C)C)C(=O)N[C@@H](CCC(N)=O)C(=O)N[C@@H](CCCNC(=N)N)C(=O)N[C@@H](Cc1ccc(O)cc1)C(=O)N[C@@H](Cc1ccc(O)cc1)C(=O)N[C@H](C(=O)N[C@@H](CO)C(=O)N[C@@H](CC(C)C)C(=O)N[C@@H](CCCNC(=N)N)C(=O)N[C@@H](Cc1c[nH]cn1)C(=O)N[C@@H](Cc1ccc(O)cc1)C(=O)N[C@@H](Cc1ccc(O)cc1)C(=O)N[C@@H](CC(N)=O)C(=O)N[C@@H](Cc1c[nH]c2ccccc12)C(=O)N[C@@H](CC(C)C)C(=O)N[C@H](C(=O)N[C@@H](CCCNC(=N)N)C(=O)N[C@@H](CCC(N)=O)C(=O)N[C@@H](CCCNC(=N)N)C(=O)N[C@@H](Cc1ccc(O)cc1)C(N)=O)[C@@H](C)O)C(C)C)[C@@H](C)O` [Compound 92, N{alpha-4}-(3-methylbutanoyl)-N{epsilon-7}-[2-(2-{2-[2-(2-{2-[(4S)-4-carboxy-4-(17-carboxyheptadecanamido)butanamido]ethoxy}ethoxy)acetamido]ethoxy}ethoxy)acetamido]-[4A,7K,9E,12T,18Q,22V,28Y,30W,31L]hPYY (4-36)] stands 1.57 nM. Under `CC(C)CC(=O)N[C@@H](C)C(=O)N1CCC[C@H]1C(=O)N[C@@H](CCC(=O)O)C(=O)N[C@@H](CCCCNC(=O)COCCOCCNC(=O)COCCOCCNC(=O)CC[C@H](NC(=O)CCCCCCCCCCCCCCCCC(=O)O)C(=O)O)C(=O)N1CCC[C@H]1C(=O)N[C@@H](CCC(=O)O)C(=O)N[C@@H](CCC(=O)O)C(=O)N[C@@H](CCC(=O)O)C(=O)N[C@@H](C)C(=O)N[C@@H](CO)C(=O)N[C@@H](C)C(=O)N[C@@H](CCC(=O)O)C(=O)N[C@@H](CCC(=O)O)C(=O)N[C@@H](CC(C)C)C(=O)N[C@@H](CCC(N)=O)C(=O)N[C@@H](CCCNC(=N)N)C(=O)N[C@@H](Cc1ccc(O)cc1)C(=O)N[C@@H](Cc1ccc(O)cc1)C(=O)N[C@H](C(=O)N[C@@H](CO)C(=O)N[C@@H](CC(C)C)C(=O)N[C@@H](CCCNC(=N)N)C(=O)N[C@@H](Cc1c[nH]cn1)C(=O)N[C@@H](Cc1ccc(O)cc1)C(=O)N[C@@H](Cc1ccc(O)cc1)C(=O)N[C@@H](CC(N)=O)C(=O)N[C@@H](Cc1c[nH]c2ccccc12)C(=O)N[C@@H](CC(C)C)C(=O)N[C@H](C(=O)N[C@@H](CCCNC(=N)N)C(=O)N[C@@H](CCC(N)=O)C(=O)N[C@@H](CCCNC(=N)N)C(=O)N[C@@H](Cc1ccc(O)cc1)C(N)=O)[C@@H](C)O)C(C)C` [Compound 25, N{alpha-4}-(3-methylbutanoyl)-N{epsilon-7}-[2-(2-{2-[2-(2-{2-[(4S)-4-carboxy-4-(17-carboxyheptadecanamido)butanamido]ethoxy}ethoxy)acetamido]ethoxy}ethoxy)acetamido]-[4A,7K,9E,11E,14A,18Q,22V,28Y,30W,31L]hPYY (4-36)] stands 4.36 nM.
